The values that follow come from patent publication US11472811B2, “Pyrazolotriazolopyrimidine derivatives as A2A receptor antagonist” (BEIGENE, LTD., priority 2018, dated 2022).

Where two headings read alike, the source gives them in different places.

The IC50 is the concentration at which inhibition is half-maximal. A high value points to weaker potency in that assay. For orientation: Ki means the dissociation constant of the complex between target and ligand, obtained from inhibition or displacement.

For series [1], the target named is human A2A receptor (A2AR) (Homo sapiens (Human), UniProt P29274). Description: Luciferase reporter assay (HEK293-A2AR-luc2p/CRE/Hygro cells). The series is classed as cell-based. The note with it: 3 nM CGS21680, 5 h incubation. An outline of the steps: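 Antagonism was scored as inhibition of CRE-luciferase signal driven by 3 nM CGS21680 (=100%) during a 5 h treatment with compound at 0.1–10000 nM. The line was HEK293 stably carrying human A2AR and luc2P/CRE, preincubated 18 h in 1% FBS containing 1 U/mL ADA. IC50 came from the dose-response curve.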
For orientation: In a reporter assay the amount or activity of a reporter protein is the signal.

Series [2] addresses human adenosine A2A receptor (A2AR) (Homo sapiens (Human), UniProt P29274). Description: Adenosine receptor binding assay, A2A (radioligand competitive binding). The note with it: membrane homogenates from HEK293 cells transfected with A2AR, 6 nM [3H]CGS21680. Here is the method: (§1) Binding affinity of test compounds to four human adenosine receptors, A1, A2A, A2B and A3 was determined in radioligand competitive binding assay (conducted by Cerep, France) using following protocols. For A1 receptor (A1R), membrane homogenates from CHO cells transfected with A1R were incubated for 60 min at 22° C. with 1 nM [3H]DPCPX in the absence or presence of the test compound in a buffer containing 50 mM Tris-HCl (pH 7.4), 5 mM MgCl2, 1 mM EDTA/Tris and 2 UI/mL ADA. For A2AR, membrane homogenates from HEK293 cells transfected with A2AR were incubated for 120 min at 22° C. with 6 nM [3H]CGS21680 in the absence or presence of the test compound in a buffer containing 50 mM Tris-HCl (pH 7.4), 10 mM MgCl2, and 2 UI/mL ADA. For A2B receptor (A2BR), membrane homogenates from HEK293 cells transfected with A2BR were incubated for 60 min at 22° C. with 5 nM [3H]CPX in the absence or presence of the test compound in a buffer containing 10 mM Hepes/Tris (pH 7), 1 mM MgCl2, and 1 mM EDTA. For A3 receptor (A3R), membrane homogenates from HEK293 cells transfected with A3R were incubated for 120 min at 22° C. with 0.15 nM [125I] AB-MECA in the absence or presence of the test compound in a buffer containing 50 mM Tris-HCl (pH 7.4), 5 mM MgCl2, 1 mM EDTA and 2 UI/mL ADA. Nonspecific binding was determined in the presence of unlabeled 1 μM DPCPX, 10 μM NECA, 100 μM NECA, and 1 μM IB-MECA in A1R, A2AR, A2BR, A3R binding assays, respectively. Following incubation, the samples are rapidly filtered and washed with ice-cold 50 mM Tris-HCl. Then filters are dried and counted for radioactivity in a scintillation counter (Topcount, Packard) using a scintillation cocktail (Microscint 0, Packard). Duplicate experiments were performed for each assay. The results are expressed as a percent inhibition of control radioligand specific binding.

The target in series [3] is human adenosine A1 receptor (A1R) (Homo sapiens (Human), UniProt P30542). Description: Adenosine receptor binding assay, A1 (radioligand competitive binding). The note with it: membrane homogenates from CHO cells transfected with A1R, 1 nM [3H]DPCPX. Here is the method:
as §1

A short description of series [4]: Mouse BBB assay. The series is classed as in vivo. The note with it: oral 10 mg/kg; for Brain (ng · g^−1): at 1 h. On the procedure:
Mice were acclimated for 1 week prior to use at 18-30 g body weight. Fasted mice were dosed orally at 10 mg/kg dose. At 1, 2 and 4 hours postdose, plasma samples from cardiac blood collected in tubes containing K2EDTA as the anticoagulant, and excised cerebral hemispheres were immediately frozen and stored at −80° C. until bioanalysis. Total concentrations of the compound were determined by LC-MS/MS. Brain homogenate concentrations were converted to brain concentrations for the calculations of brain-to-plasma ratios.

[5] abbreviates: BLOQ: below limit of quantitation, Brain is 5 ng/g.
The mark [6] stands for this setting: limit of quantitation plasma 1 ng/ml, read-out: Plasma.
[7] abbreviates: BLOQ: below limit of quantitation, Brain is 5 ng/g, read-out: Brain.

Chain of human adenosine A2A receptor (A2AR) (P29274 whole entry): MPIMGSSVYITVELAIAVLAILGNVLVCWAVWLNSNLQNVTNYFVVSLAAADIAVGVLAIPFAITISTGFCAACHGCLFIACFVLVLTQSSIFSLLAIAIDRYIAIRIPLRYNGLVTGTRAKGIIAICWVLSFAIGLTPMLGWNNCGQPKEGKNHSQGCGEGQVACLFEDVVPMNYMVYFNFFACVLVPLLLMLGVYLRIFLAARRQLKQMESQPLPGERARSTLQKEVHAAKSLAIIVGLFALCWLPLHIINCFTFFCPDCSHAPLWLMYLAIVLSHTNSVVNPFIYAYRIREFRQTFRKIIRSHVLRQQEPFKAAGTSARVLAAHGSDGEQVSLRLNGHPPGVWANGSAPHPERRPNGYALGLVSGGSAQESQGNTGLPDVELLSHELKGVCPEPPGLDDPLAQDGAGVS
Chain of human A2A receptor (A2AR) (P29274 whole entry): as above
Chain of human adenosine A1 receptor (A1R) (P30542 whole entry): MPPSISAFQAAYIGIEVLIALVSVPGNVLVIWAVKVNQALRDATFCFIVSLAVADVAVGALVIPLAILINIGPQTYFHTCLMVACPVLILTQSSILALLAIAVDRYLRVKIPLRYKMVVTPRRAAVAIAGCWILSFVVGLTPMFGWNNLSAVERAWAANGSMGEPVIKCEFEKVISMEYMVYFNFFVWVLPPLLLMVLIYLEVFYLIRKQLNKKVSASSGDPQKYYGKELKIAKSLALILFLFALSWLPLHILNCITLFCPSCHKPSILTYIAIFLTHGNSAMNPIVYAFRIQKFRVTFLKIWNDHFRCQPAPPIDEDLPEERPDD

In series [1], `C[C@](C(=O)N[C@H]1CC[C@@H](O)CC1)(c1ccccc1)n1ncc2c1nc(N)n1nc(-c3ccco3)nc21` [Example 76B, (R)-2-(5-amino-2-(furan-2-yl)-7H-pyrazolo[4,3-e][1,2,4]triazolo[1,5-c]pyrimidin-7-yl)-(cis)-N-(4-hydroxycyclohexyl)-2-phenylpropanamide] came in with an IC50 of 2.2 nM. Further, the values for the Ki in series [2] and in series [3] were 1.6 nM and 150 nM, respectively. In series [4] (setting [5]), the “Brain (ng · g^−1)” value was “BLOQ”. Moreover, the concentration at 1 h in series [4] (setting [6]) came to 39.1 ng/mL.

As to `C[C@](C(=O)N[C@@H]1CCC[C@@H]1O)(c1ccccc1)n1ncc2c1nc(N)n1nc(-c3ccco3)nc21` [Example 48B, (R)-2-(5-amino-2-(furan-2-yl)-7H-pyrazolo[4,3-e][1,2,4]triazolo[1,5-c]pyrimidin-7-yl)-N-((1R,2S)-2-hydroxycyclopentyl)-2-phenylpropanamide], the IC50 in series [1] was determined as 1.6 nM. In addition, the values for the Ki in series [2] and in series [3] were 2.2 nM and 12 nM, respectively. The concentration at 1 h in series [4] (setting [7]) was 8.69 ng/g; in series [4] (setting [6]), 56.3 ng/mL.

As for `Nc1nc2c(cnn2[C@H](C(=O)NCC2(O)COC2)c2ccccc2)c2nc(-c3ccco3)nn12` [Example 82B], the half-inhibitory concentration (IC50) in series [1] was 3.8 nM. The Ki in series [2] was 1.7 nM; in series [3], 7.2 nM.

On to `C[C@](C(=O)NCC1(O)COC1)(c1ccccc1)n1ncc2c1nc(N)n1nc(-c3ccco3)nc21` [Example 31B, (R)-2-(5-amino-2-(furan-2-yl)-7H-pyrazolo[4,3-e][1,2,4]triazolo[1,5-c]pyrimidin-7-yl)-N-((3-hydroxyoxetan-3-yl)methyl)-2-phenylpropanamide], for which, in series [1], the IC50 was 2.3 nM. For the same molecule, the inhibition constant (Ki) in series [2] is 1.2 nM; in series [3] it was 180 nM. Besides, in series [4] (setting [5]), the “Brain (ng · g^−1)” value is reported as “BLOQ”. The concentration at 1 h in series [4] (setting [6]) stood at 177 ng/mL.

For the molecule `CC1(O)CCC(NC(=O)[C@@](C)(c2ccccc2)n2ncc3c2nc(N)n2nc(-c4ccco4)nc32)CC1` (stereo partly drawn) [Example 69B, (R)-2-(5-amino-2-(furan-2-yl)-7H-pyrazolo[4,3-e][1,2,4]triazolo[1,5-c]pyrimidin-7-yl)-(cis)-N-(4-hydroxy-4-methylcyclohexyl)-2-phenylpropanamide], half-maximal inhibition in series [1] (IC50) required 3.9 nM. The Ki in series [2] is 1.6 nM; in series [3], 540 nM. Moreover, the “Brain (ng · g^−1)” value in series [4] (setting [5]) was “BLOQ”. In addition, in series [4] (setting [6]), the concentration at 1 h is 29.4 ng/mL.

Turning to `COCCOc1ccc(N2CCN(CCn3ncc4c3nc(N)n3nc(-c5ccco5)nc43)CC2)cc1` [Preladenant, reference compound], the figures for the concentration at 1 h in series [4] (setting [7]) and in series [4] (setting [6]) were 258 ng/g and 197 ng/mL, respectively.

As to `Cc1ccc(CNC(=O)[C@@](C)(c2ccccc2)n2ncc3c2nc(N)n2nc(-c4ccco4)nc32)nc1` [Example 109B, (R)-2-(5-amino-2-(furan-2-yl)-7H-pyrazolo[4,3-e][1,2,4]triazolo[1,5-c]pyrimidin-7-yl)-N-((5-methylpyridin-2-yl)methyl)-2-phenylpropanamide], the midpoint of inhibition in series [1], the IC50, lay at 0.7 nM.

The molecule `Nc1nc2c(cnn2C(C(=O)NCc2cccc(C3(O)CCC3)n2)c2ccccc2)c2nc(-c3ccco3)nn12` (stereo not drawn) [Example 18, 2-(5-amino-2-(furan-2-yl)-7H-pyrazolo[4,3-e][1,2,4]triazolo[1,5-c]pyrimidin-7-yl)-N-((6-(1-hydroxycyclobutyl)pyridin-2-yl)methyl)-2-phenylacetamide] came in with a concentration for half-maximal inhibition (IC50) in series [1] of 0.9 nM.
